# From patent publication US12503471B2, “Triazatricycle compounds for the treatment of autoimmune disease” (Hoffmann-La Roche Inc., priority 2019, dated 2025)
# Target: T1, human TLR9 (Homo sapiens, UniProt Q9NR96)
# T1 construct: host or cells: HEK293 (HEK-Blue hTLR9)
# T1 sequence (Q9NR96 26-1032): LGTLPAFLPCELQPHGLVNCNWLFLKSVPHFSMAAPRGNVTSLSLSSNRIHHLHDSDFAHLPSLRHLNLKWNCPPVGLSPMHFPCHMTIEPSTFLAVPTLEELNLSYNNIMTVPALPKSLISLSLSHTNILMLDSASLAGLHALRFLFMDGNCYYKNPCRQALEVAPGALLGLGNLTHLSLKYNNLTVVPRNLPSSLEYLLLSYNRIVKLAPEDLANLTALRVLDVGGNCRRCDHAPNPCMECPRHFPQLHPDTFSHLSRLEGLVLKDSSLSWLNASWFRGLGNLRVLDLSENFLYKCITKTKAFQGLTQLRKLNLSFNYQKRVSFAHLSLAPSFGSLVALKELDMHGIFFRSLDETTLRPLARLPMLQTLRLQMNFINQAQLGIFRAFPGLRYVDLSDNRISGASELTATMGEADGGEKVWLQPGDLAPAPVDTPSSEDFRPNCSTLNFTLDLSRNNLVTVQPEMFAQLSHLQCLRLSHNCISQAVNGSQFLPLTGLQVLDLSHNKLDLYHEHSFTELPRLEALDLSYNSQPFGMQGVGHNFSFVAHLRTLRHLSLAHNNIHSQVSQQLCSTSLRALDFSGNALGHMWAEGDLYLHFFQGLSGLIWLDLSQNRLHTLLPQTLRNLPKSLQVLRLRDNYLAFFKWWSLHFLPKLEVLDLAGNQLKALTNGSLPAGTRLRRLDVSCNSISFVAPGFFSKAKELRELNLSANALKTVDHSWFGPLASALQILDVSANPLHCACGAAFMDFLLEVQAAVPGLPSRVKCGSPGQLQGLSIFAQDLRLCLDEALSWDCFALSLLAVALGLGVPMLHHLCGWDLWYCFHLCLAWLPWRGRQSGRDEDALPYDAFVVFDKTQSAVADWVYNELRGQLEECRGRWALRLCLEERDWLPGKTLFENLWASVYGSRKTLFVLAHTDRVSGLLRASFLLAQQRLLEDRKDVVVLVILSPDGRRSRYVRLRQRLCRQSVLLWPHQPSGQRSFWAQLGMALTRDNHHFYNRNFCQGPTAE
# Test: HEK293-Blue-hTLR-9 cells assay
# Format: cell-based
# Conditions: HEK293-Blue-hTLR9 cells, ODN2006 stimulation, 20 hrs, SEAP reporter; read-out: HEK/hTLR9 IC50
# Excerpt: HEK293-Blue-hTLR-9 Cells Assay:
# A stable HEK293-Blue-hTLR-9 cell line was purchased from InvivoGen (Cat. #: hkb-htlr9, San Diego, Calif., USA). These cells were originally designed for studying the stimulation of human TLR9 by monitoring the activation of NF-κB. A SEAP (secreted embryonic alkaline phosphatase) reporter gene was placed under the control of the IFN-β minimal promoter fused to five NF-κB and AP-1-binding sites. The SEAP was induced by activating NF-κB and AP-1 via stimulating HEK-Blue hTLR9 cells with TLR9 ligands. Therefore the reporter expression was declined by TLR9 antagonist under the stimulation of a ligand, such as ODN2006 (Cat. #: tlrl-2006-1, Invivogen, San Diego, Calif., USA), for incubation of 20 hrs. The cell culture supernatant SEAP reporter activity was determined using QUANTI-Blue^TM kit (Cat. #: rep-qbl, Invivogen, San Diego, Calif., USA) at a wavelength of 640 nm, a detection medium that turns purple or blue in the presence of alkaline phosphatase.
# HEK293-Blue-hTLR9 cells were incubated at a density of 250,000˜450,000 cells/mL in a volume of 170 μL in a 96-well plate in Dulbecco's Modified Eagle's medium (DMEM) containing 4.5 g/L glucose, 50 U/mL penicillin, […] streptomycin, […] Normocin, 2 mM L-glutamine, 10% (v/v) heat-inactivated fetal bovine serum with addition of 20 μL test compound in a serial dilution in the presence of final DMSO at 1% and 10 μL of 20 uM ODN2006 in above DMEM, perform incubation under 37° C. in a CO2 incubator for 20 hrs. Then 20 μL of the supernatant from each well was incubated with 180 μL Quanti-blue substrate solution at 37° C. for 2 h and the absorbance was read at 620-655 nm using a spectrophotometer. The signaling pathway that TLR9 activation leads to downstream NF-κB activation has been widely accepted, and therefore similar reporter assay was modified for evaluating TLR9 antagonist.
row,SMILES,IC50
1,"[2H]c1ccc2c(N3C[C@@H](C)N4Cc5nc(N6CCC7(CNC7)C6)ccc5[C@H]4C3)ccc(C#N)c2n1 [Example 9, 2-Deuterio-5-[(2S,6R)-11-(2,6-diazaspiro[3.4]octan-6-yl)-6-methyl-4,7,10-triazatricyclo[7.4.0.02,7]trideca-1(9),10,12-trien-4-yl]quinoline-8-carbonitrile]",106 nM
2,"[2H]c1ccc2c(N3C[C@@H](C)N4Cc5nc(N6CC[C@@H](N)[C@H](OC)C6)ccc5[C@H]4C3)ccc(C#N)c2n1 [Example 11, 5-[(2S,6R)-11-[(3R,4R)-4-amino-3-methoxy-1-piperidyl]-6-methyl-4,7,10-triazatricyclo[7.4.0.02,7]trideca-1(9),10,12-trien-4-yl]-2-deuterio-quinoline-8-carbonitrile]",202 nM
3,"[2H]c1ccc2c(N3C[C@@H](C)N4Cc5nc(N6CC[C@@](C)(N)C6)ccc5[C@H]4C3)ccc(C#N)c2n1 [Example 7, 5-[(2S,6R)-11-[(3R)-3-amino-3-methyl-pyrrolidin-1-yl]-6-methyl-4,7,10-triazatricyclo[7.4.0.02,7]trideca-1(9),10,12-trien-4-yl]-2-deuterio-quinoline-8-carbonitrile]",236 nM
4,"[2H]c1ccc2c(N3C[C@@H](C)N4Cc5nc(N6CC[C@H](OC)[C@@H](N)C6)ccc5[C@H]4C3)ccc(C#N)c2n1 [Example 14, 5-[(2S,6R)-11-[(3S,4S)-3-amino-4-methoxy-1-piperidyl]-6-methyl-4,7,10-triazatricyclo[7.4.0.02,7]trideca-1(9),10,12-trien-4-yl]-2-deuterio-quinoline-8-carbonitrile]",316 nM
5,"[2H]c1ccc2c(N3C[C@@H](C)N4Cc5nc(N6CC[C@H]7CNC[C@H]76)ccc5[C@H]4C3)ccc(C#N)c2n1 [Example 10, 5-[(2S,6R)-11-[(3aS,6aS)-3,3a,4,5,6,6a-hexahydro-2H-pyrrolo[2,3-c]pyrrol-1-yl]-6-methyl-4,7,10-triazatricyclo[7.4.0.02,7]trideca-1(9),10,12-trien-4-yl]-2-deuterio-quinoline-8-carbonitrile]",186 nM
6,"CC1(N)CCN(c2ccc3c(n2)CN2CCN(c4ccc(C#N)c5ncccc45)C[C@@H]32)CC1 [Example 4A, 5-[(2R)-11-(4-amino-4-methyl-1-piperidyl)-4,7,10-triazatricyclo[7.4.0.02,7]trideca-1(9),10,12-trien-4-yl]quinoline-8-carbonitrile]",56.6 nM
7,"[2H]c1ccc2c(N3C[C@@H](C)N4Cc5nc(N6C[C@@H]7C[C@H]6CN7)ccc5[C@H]4C3)ccc(C#N)c2n1 [Example 16, 2-Deuterio-5-[(2S,6R)-11-[(1S,4S)-2,5-diazabicyclo[2.2.1]heptan-2-yl]-6-methyl-4,7,10-triazatricyclo[7.4.0.02,7]trideca-1(9),10,12-trien-4-yl]quinoline-8-carbonitrile]",121 nM
8,"[2H]c1ccc2c(N3C[C@@H](C)N4Cc5nc(N6CC[C@H](N)[C@H](OC)C6)ccc5[C@H]4C3)ccc(C#N)c2n1 [Example 13, 5-[(2S,6R)-11-[(3R,4S)-4-amino-3-methoxy-1-piperidyl]-6-methyl-4,7,10-triazatricyclo[7.4.0.02,7]trideca-1(9),10,12-trien-4-yl]-2-deuterio-quinoline-8-carbonitrile]",289 nM
9,"C[C@@H]1CN(c2ccc(C#N)c3ncccc23)C[C@@H]2c3ccc(N4CCCNCC4)nc3CN12 [Example 20, 5-[(2S,6R)-11-(1,4-diazepan-1-yl)-6-methyl-4,7,10-triazatricyclo[7.4.0.02,7]trideca-1(9),10,12-trien-4-yl]quinoline-8-carbonitrile]",206 nM
10,"[2H]c1ccc2c(N3C[C@@H](C)N4Cc5nc(OC6CCNCC6)ccc5[C@H]4C3)ccc(C#N)c2n1 [Example 24, 2-Deuterio-5-[(2S,6R)-6-methyl-11-(4-piperidyloxy)-4,7,10-triazatricyclo[7.4.0.02,7]trideca-1(9),10,12-trien-4-yl]quinoline-8-carbonitrile]",118 nM
11,"[2H]c1ccc2c(N3C[C@@H](C)N4Cc5nc(N6CC[C@@H](OC)[C@H](N)C6)ccc5[C@H]4C3)ccc(C#N)c2n1 [Example 15, 5-[(2S,6R)-11-[(3R,4R)-3-amino-4-methoxy-1-piperidyl]-6-methyl-4,7,10-triazatricyclo[7.4.0.02,7]trideca-1(9),10,12-trien-4-yl]-2-deuterio-quinoline-8-carbonitrile]",212 nM
12,"[2H]c1ccc2c(N3C[C@@H](C)N4Cc5nc(N6CCC(C)(N)CC6)ccc5[C@H]4C3)ccc(C#N)c2n1 [Example 19, 5-[(2S,6R)-11-(4-amino-4-methyl-1-piperidyl)-6-methyl-4,7,10-triazatricyclo[7.4.0.02,7]trideca-1(9),10,12-trien-4-yl]-2-deuterio-quinoline-8-carbonitrile]",142 nM
